Series [1] can be described thus: Spectrum transmittance / maximum absorption wavelength of the dye. It counts as physicochemical. As to the method: (§1) The diaminopyridine azo-based dyes (A-1) according to Examples 1 to 6 are measured regarding various properties such as solubility, maximum absorption wavelength, thermal decomposition temperature, and the like.
(§2) FIG. 1 is a graph showing the spectrum transmittance graph of the diaminopyridine azo-based dye (A-1), and FIG. 2 is a graph showing thermogravimetric analysis (TGA) results.

Series [2] is described as follows: Thermogravimetric analysis (TGA) of the dye. In kind it is physicochemical. The settings on record: temperature at which 10% of weight is decomposed (TGA). As to the method:
as §1, §2

As for `CCCCC(CC)CNCCS(=O)(=O)c1ccc(/N=N/c2c(NCC(CC)CCCC)nc(NCC(CC)CCCC)c(C#N)c2C)cc1` (centres unmarked) [A-1], the maximum absorption wavelength in series [1] is reported as 470 nm. Besides, the thermal decomposition temperature in series [2] turned out to be 318 °C.

These data come from US8961837B2, “Photosensitive resin composition for color filter and color filter using same” (Cheil Industries Inc., priority 2010, dated 2015).
